Source: PMC8318231, “Rate-of-Kill (RoK) assays to triage large compound sets for Chagas disease drug discovery: Application to GSK Chagas Box” (PLoS Neglected Tropical Diseases, 2021)

Test system: T. cruzi intracellular amastigotes in H9c2 cells
Assay: Rate-of-Kill (RoK) high-content imaging assay, amastigotes per cell (AM/CELL) and curve descriptors
Assay type: cell-based, Trypanosoma cruzi
Design: key to ME_24h / ME_48h / ME_72h: % reduction in parasite burden (cidal response); t50pct_MCC50 / t50pct_Cmax: unit not given here
Conditions: for ME_24h: 24h; for ME_48h: 48h; for ME_72h: 72h; for t50%_Cmax / tlag_Cmax / t50pct_Cmax: at Cmax; for ME_24h (%): maximum effect at 24 h; for ME_24h (%) / ME_48h (%) / ME_72h (%): RoK assay; for ME_48h (%): maximum effect at 48 h; for ME_72h (%): maximum effect at 72 h; for ME 24h (maximum effect at 24 hours, intracellular amastigotes): maximum percentage of parasite burden reduction reached by any concentration
In short: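 H9c2 cardiomyocytes infected with T. cruzi trypomastigotes (MOI 8, 18 h), then compounds tested at 5 μM single shot or 11-point 1/3 dilution from 50 μM. DRAQ5-stained nuclei imaged over a time course. Amastigotes per cell normalised to infected cells at 4 h (0%) and non-infected cells (100%).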

| SMILES | ME_24h (figure 5) | ME_48h (figure 5) | ME_72h (figure 5) | MCC50 (RoK curve descriptor) | MCCE (RoK curve descriptor) | AM/CELL NORM (Time 4, sheet figure 4 A) | t50%_Cmax | tlag_Cmax | t50pct_Cmax (figure 5) | tlag_Cmax (figure 5) | t50pct_MCC50 (at MCC50, figure 5) | tlag_MCC50 (at MCC50, figure 5) | MCCE (figure 5) | ME_24h (%) | ME_48h (%) | ME_72h (%) | ME 24h (maximum effect at 24 hours, intracellular amastigotes) | AM/CELL NORM (Time 24, sheet figure 4 A) | AM/CELL NORM (Time 48, sheet figure 4 A) | AM/CELL NORM (Time 72, sheet figure 4 A) | further results |
| --- | --- | --- | --- | --- | --- | --- | --- | --- | --- | --- | --- | --- | --- | --- | --- | --- | --- | --- | --- | --- | --- |
| CCN(C)Cc1ccc(N2CCC(NS(=O)(=O)c3ccc4c(c3)CCO4)CC2)nc1 [TCMDC-143244] | -27.3777 | 29.749 | 55.3707 | 5.6 µM | 5.6 µM | 16.0918 | 72.0 h | 24.0 h | 72 | 24 | 72 | 48 | 5.556 | -27.4% | 29.8% | 55.4% | -2.6188% | – | – | – | AM/CELL NORM (Time 24, figure 4 A): -52.1365; AM/CELL NORM (Time 48, figure 4 A): 10.0549; AM/CELL NORM (Time 72, figure 4 A): 24.5494; t50%_MCC50 (at MCC50): 72.0 h; tlag_MCC50 (at MCC50): 24.0 h; MCC50 (figure 5, in µM): 27.7778 |
| COc1ccc(S(=O)(=O)NC(C)C)cc1Nc1ncc(-c2cccc(F)c2)cn1 [TCMDC-143248] | -143.559 | -20.0816 | 54.2238 | 50.0 µM | 0.6 µM | -6.932 | 72.0 h | 24.0 h | 72 | 24 | 72 | 48 | 0.6173 | -143.6% | -20.1% | 54.2% | -47.9652% | -311.598 | -64.9455 | 9.4251 | t50%_MCC50 (at MCC50): 72.0 h; tlag_MCC50 (at MCC50): 24.0 h; MCC50 (figure 5): 50 µM |
| O=C(NCCc1ccccc1Cl)c1cccn1-c1cccnc1 [TCMDC-143253] | -106.211 | -219.247 | 24.5352 | – | 0.6 µM | -14.0913 | – | 48.0 h | 72 | 48 | 72 | 72 | 0.6173 | -106.2% | -219.3% | 24.5% | -106.211% | -106.211 | -401.6 | -120.948 | MCC50 (figure 5): 50 µM |
| COc1ccc(S(=O)(=O)Nc2ccccc2OC)cc1NC(=O)CCCc1c[nH]c2ccccc12 [TCMDC-143256] | -69.6887 | 10.9628 | 75.3535 | 5.6 µM | 1.9 µM | 3.221 | 72.0 h | 24.0 h | 72 | 24 | 72 | 24 | 1.852 | -69.7% | 11.0% | 75.4% | -34.0663% | -34.0663 | 12.7734 | 63.1728 | t50%_MCC50 (at MCC50): 72.0 h; tlag_MCC50 (at MCC50): 24.0 h; MCC50 (figure 5, in µM): 5.556 |
| COc1ccc2c(Cl)c(C(=O)N3CCC3)sc2c1Cl [TCMDC-143262] | -33.6637 | -143.465 | -114.282 | – | 16.7 µM | 16.6129 | – | 48.0 h | 72 | 48 | 72 | 72 | 16.6667 | -33.7% | -143.5% | -114.3% | -33.6637% | -33.6637 | -143.465 | -114.282 | MCC50 (figure 5): 50 µM |
